According to the NIST ThermoML archive (doi:10.1021/je700042z):
Several values for one entry are separate records, joined by “and”; a condition that tells them apart may be missing. Equal values may be shown once.

Assay: cn = amount concentration of the nth substance listed, in mol/dm3
Details: 298.15 K, 101 kPa, Liquid

O=C(O)CC(=O)O [propanedioic acid] + O
Details	binary diffusion coefficient
c1 = 0.000124	1.67e-09 m2/s and 1.68e-09 m2/s
c1 = 0.000252	1.59e-09 m2/s and 1.61e-09 m2/s and 1.6e-09 m2/s
c1 = 0.000253	1.61e-09 m2/s and 1.6e-09 m2/s and 1.59e-09 m2/s
c1 = 0.000378	1.53e-09 m2/s and 1.52e-09 m2/s
c1 = 0.000379	1.52e-09 m2/s
c1 = 0.000502	1.49e-09 m2/s
c1 = 0.000627	1.46e-09 m2/s and 1.45e-09 m2/s
c1 = 0.000751	1.42e-09 m2/s
c1 = 0.000803	1.4e-09 m2/s
c1 = 0.00138	1.32e-09 m2/s and 1.33e-09 m2/s
c1 = 0.0019	1.27e-09 m2/s
c1 = 0.0025	1.23e-09 m2/s and 1.22e-09 m2/s
c1 = 0.0035	1.19e-09 m2/s and 1.18e-09 m2/s
c1 = 0.00454	1.16e-09 m2/s
c1 = 0.0046	1.14e-09 m2/s and 1.15e-09 m2/s and 1.16e-09 m2/s
c1 = 0.00701	1.11e-09 m2/s
c1 = 0.0101	1.08e-09 m2/s
c1 = 0.0118	1.07e-09 m2/s and 1.08e-09 m2/s
c1 = 0.015	1.06e-09 m2/s and 1.07e-09 m2/s and 1.05e-09 m2/s
c1 = 0.0201	1.03e-09 m2/s

O=[As](O)(O)O [arsenic acid] + O
Details	binary diffusion coefficient
c1 = 0.000125	1.5e-09 m2/s and 1.49e-09 m2/s
c1 = 0.000407	1.41e-09 m2/s
c1 = 0.000837	1.35e-09 m2/s
c1 = 0.00101	1.33e-09 m2/s and 1.32e-09 m2/s
c1 = 0.00206	1.24e-09 m2/s
c1 = 0.00251	1.21e-09 m2/s
c1 = 0.00351	1.17e-09 m2/s
c1 = 0.00471	1.13e-09 m2/s and 1.14e-09 m2/s
c1 = 0.00506	1.12e-09 m2/s
c1 = 0.00701	1.08e-09 m2/s and 1.09e-09 m2/s
c1 = 0.00825	1.08e-09 m2/s and 1.07e-09 m2/s
c1 = 0.0119	1.03e-09 m2/s and 1.04e-09 m2/s
c1 = 0.014	1.02e-09 m2/s
